Measurements reported in the NIST ThermoML archive (doi:10.1016/j.jct.2005.04.005).
± gives the expanded uncertainty stated by the source. Values belong to the compound of their own block, whether it stands above or below them.

Tests used:
[1] = 298.15 K; 101 kPa; Liquid
[2] = mn = molality of the nth substance listed, in mol/kg; conditions: 101 kPa, Liquid

Compound: ClC(Cl)(Cl)Cl [tetrachloromethane]
mass density [1]: 1584.35 ± 2.2 kg/m3
speed of sound [1]: 921.5 ± 1.7 m/s

mass density ([2]; 295.15 K, m2 = 0): 997.773 ± 0.6 kg/m3
mass density ([2]; 297.15 K, m2 = 0): 997.299 ± 0.6 kg/m3
mass density ([2]; 299.15 K, m2 = 0): 996.786 ± 0.6 kg/m3
mass density ([2]; 301.15 K, m2 = 0): 996.236 ± 0.61 kg/m3
Compound: O [water] + C1COCCOCCOCCOCCOCCO1

Compound: ClC(Cl)(Cl)Cl [tetrachloromethane] + C1COCCOCCOCCOCCOCCO1
mass density ([2]; 298.15 K, m2 = 0): 1584.35 ± 2.2 kg/m3
speed of sound ([2]; 298.15 K, m2 = 0): 921.5 ± 1.7 m/s

Compound: C1COCCOCCOCCOCCOCCO1 [1,4,7,10,13,16-hexaoxacyclooctadecane] + ClC(Cl)(Cl)Cl
mass density ([2]; 298.15 K, m1 = 0.0896): 1569.55 ± 2.1 kg/m3
speed of sound ([2]; 298.15 K, m1 = 0.0896): 932.5 ± 1.7 m/s
mass density ([2]; 298.15 K, m1 = 0.1666): 1557.54 ± 2.1 kg/m3
speed of sound ([2]; 298.15 K, m1 = 0.1666): 941.9 ± 1.7 m/s
mass density ([2]; 298.15 K, m1 = 0.3643): 1529.41 ± 2 kg/m3
speed of sound ([2]; 298.15 K, m1 = 0.3643): 965.4 ± 1.8 m/s
mass density ([2]; 298.15 K, m1 = 0.5719): 1503.47 ± 1.9 kg/m3
speed of sound ([2]; 298.15 K, m1 = 0.5719): 989.2 ± 1.8 m/s
mass density ([2]; 298.15 K, m1 = 0.8185): 1476.37 ± 1.8 kg/m3
speed of sound ([2]; 298.15 K, m1 = 0.8185): 1015.6 ± 1.8 m/s
mass density ([2]; 298.15 K, m1 = 1.013): 1457.02 ± 1.8 kg/m3
speed of sound ([2]; 298.15 K, m1 = 1.013): 1034.2 ± 1.8 m/s
